# According to ChEMBL document CHEMBL3885881, “DrugMatrix”:
# Species: Rattus norvegicus
# Assay: DrugMatrix - Regimen: Daily Repeat
# Type: toxicity, organism-based, Sprague-Dawley
# Design: regimen Daily Repeat, gender Male, age 6-8 weeks
# Settings: in vivo, po, route oral GAVAGE, […]; for ABSOLUTE BASOPHIL / ABSOLUTE EOSINOPHIL / ABSOLUTE LYMPHOCYTE / ABSOLUTE MONOCYTE / ABSOLUTE SEGMENTED NEUTROPHIL / BASOPHIL / EOSINOPHIL / ERYTHROCYTE COUNT / HEMATOCRIT / HEMOGLOBIN / LEUKOCYTE COUNT / LYMPHOCYTE / MEAN CORPUSCULAR HEMOGLOBIN / MEAN CORPUSCULAR HEMOGLOBIN CONCENTRATION / MEAN CORPUSCULAR VOLUME / MONOCYTE / NEUTROPHIL / NUCLEATED RED BLOOD CELLS / PLATELET COUNT: tissue Blood; for ALANINE AMINOTRANSFERASE / ALBUMIN / ALKALINE PHOSPHATASE / ASPARTATE AMINOTRANSFERASE / BLOOD UREA NITROGEN / CARBON DIOXIDE / CHLORIDE / CHOLESTEROL / CREATINE PHOSPHOKINASE / CREATININE / GLUCOSE / LACTATE DEHYDROGENASE / LIPASE / PHOSPHORUS / POTASSIUM / SODIUM / TOTAL BILIRUBIN / TOTAL PROTEIN / URIC ACID: tissue Plasma
# [1] = 0 mg/kg, 72 h, dose level Control, time 3 day
# [2] = 0 mg/kg, 120 h, dose level Control, time 5 day
# [3] = 1 mg/kg, 72 h, dose level Low, time 3 day
smiles,measurement,setting,value
O=C(O)COC(=O)Cc1ccccc1Nc1c(Cl)cccc1Cl [ACECLOFENAC],ABSOLUTE BASOPHIL,[1],0 CELLS/uL
same,ABSOLUTE EOSINOPHIL,[1],0 CELLS/uL
same,ABSOLUTE LYMPHOCYTE,[1],9244.83 CELLS/uL
same,ABSOLUTE MONOCYTE,[1],102 CELLS/uL
same,ABSOLUTE SEGMENTED NEUTROPHIL,[1],869.83 CELLS/uL
same,BASOPHIL,[1],0%
same,EOSINOPHIL,[1],0%
same,ERYTHROCYTE COUNT,[1],5.43 x10E6/uL
same,HEMATOCRIT,[1],34.03%
same,HEMOGLOBIN,[1],13.27 G/DL
same,LEUKOCYTE COUNT,[1],10.22 x10E3/uL
same,LYMPHOCYTE,[1],90.33%
same,MEAN CORPUSCULAR HEMOGLOBIN,[1],24.48 pg
same,MEAN CORPUSCULAR HEMOGLOBIN CONCENTRATION,[1],39.03 G/DL
same,MEAN CORPUSCULAR VOLUME,[1],62.75 fL
same,MONOCYTE,[1],1%
same,NEUTROPHIL,[1],8.67%
same,NUCLEATED RED BLOOD CELLS,[1],0.17 /100WBC
same,PLATELET COUNT,[1],989 x10E3/uL
same,ALANINE AMINOTRANSFERASE,[1],77 u/L
same,ALBUMIN,[1],3.97 G/DL
same,ALKALINE PHOSPHATASE,[1],464.83 u/L
same,ASPARTATE AMINOTRANSFERASE,[1],89.83 u/L
same,BLOOD UREA NITROGEN,[1],12.17 mg/dL
same,CARBON DIOXIDE,[1],34.17 mmol/L
same,CHLORIDE,[1],98.33 MEQ/L
same,CHOLESTEROL,[1],75.17 mg/dL
same,CREATINE PHOSPHOKINASE,[1],367.67 u/L
same,CREATININE,[1],0.16 mg/dL
same,GLUCOSE,[1],142.67 mg/dL
same,LACTATE DEHYDROGENASE,[1],139.33 u/L
same,LIPASE,[1],9.5 u/L
same,PHOSPHORUS,[1],10.85 mg/dL
same,POTASSIUM,[1],6.38 MEQ/L
same,SODIUM,[1],143.2 MEQ/L
same,TOTAL BILIRUBIN,[1],0.2 mg/dL
same,TOTAL PROTEIN,[1],5.77 G/DL
same,URIC ACID,[1],0.7 mg/dL
same,ABSOLUTE BASOPHIL,[2],0 CELLS/uL
same,ABSOLUTE EOSINOPHIL,[2],0 CELLS/uL
same,ABSOLUTE LYMPHOCYTE,[2],8295.33 CELLS/uL
same,ABSOLUTE MONOCYTE,[2],84.67 CELLS/uL
same,ABSOLUTE SEGMENTED NEUTROPHIL,[2],970 CELLS/uL
same,BASOPHIL,[2],0%
same,EOSINOPHIL,[2],0%
same,ERYTHROCYTE COUNT,[2],5.74 x10E6/uL
same,HEMATOCRIT,[2],36.22%
same,HEMOGLOBIN,[2],13.85 G/DL
same,LEUKOCYTE COUNT,[2],9.35 x10E3/uL
same,LYMPHOCYTE,[2],88.67%
same,MEAN CORPUSCULAR HEMOGLOBIN,[2],24.13 pg
same,MEAN CORPUSCULAR HEMOGLOBIN CONCENTRATION,[2],38.25 G/DL
same,MEAN CORPUSCULAR VOLUME,[2],63.08 fL
same,MONOCYTE,[2],1%
same,NEUTROPHIL,[2],10.33%
same,NUCLEATED RED BLOOD CELLS,[2],0.17 /100WBC
same,PLATELET COUNT,[2],883.83 x10E3/uL
same,ALANINE AMINOTRANSFERASE,[2],64.5 u/L
same,ALBUMIN,[2],4.12 G/DL
same,ALKALINE PHOSPHATASE,[2],425.67 u/L
same,ASPARTATE AMINOTRANSFERASE,[2],88.5 u/L
same,BLOOD UREA NITROGEN,[2],14.17 mg/dL
same,CARBON DIOXIDE,[2],30.5 mmol/L
same,CHLORIDE,[2],100.33 MEQ/L
same,CHOLESTEROL,[2],55.33 mg/dL
same,CREATINE PHOSPHOKINASE,[2],287.17 u/L
same,CREATININE,[2],0.2 mg/dL
same,GLUCOSE,[2],162.83 mg/dL
same,LACTATE DEHYDROGENASE,[2],111.33 u/L
same,LIPASE,[2],10.5 u/L
same,PHOSPHORUS,[2],10.32 mg/dL
same,POTASSIUM,[2],5.13 MEQ/L
same,SODIUM,[2],143.93 MEQ/L
same,TOTAL BILIRUBIN,[2],0.17 mg/dL
same,TOTAL PROTEIN,[2],5.9 G/DL
same,URIC ACID,[2],0.77 mg/dL
same,ABSOLUTE BASOPHIL,[3],0 CELLS/uL
same,ABSOLUTE EOSINOPHIL,[3],34 CELLS/uL
same,ABSOLUTE LYMPHOCYTE,[3],11265.67 CELLS/uL
same,ABSOLUTE MONOCYTE,[3],0 CELLS/uL
same,ABSOLUTE SEGMENTED NEUTROPHIL,[3],933.67 CELLS/uL
same,BASOPHIL,[3],0%
same,EOSINOPHIL,[3],0.33%
same,ERYTHROCYTE COUNT,[3],5.17 x10E6/uL
same,HEMATOCRIT,[3],32.3%
same,HEMOGLOBIN,[3],12.7 G/DL
same,LEUKOCYTE COUNT,[3],12.23 x10E3/uL
same,LYMPHOCYTE,[3],92.33%
same,MEAN CORPUSCULAR HEMOGLOBIN,[3],24.6 pg
same,MEAN CORPUSCULAR HEMOGLOBIN CONCENTRATION,[3],39.37 G/DL
same,MEAN CORPUSCULAR VOLUME,[3],62.53 fL
same,MONOCYTE,[3],0%
same,NEUTROPHIL,[3],7.33%
same,NUCLEATED RED BLOOD CELLS,[3],0 /100WBC
same,PLATELET COUNT,[3],1096 x10E3/uL
same,ALANINE AMINOTRANSFERASE,[3],63.33 u/L
same,ALBUMIN,[3],4.13 G/DL
same,ALKALINE PHOSPHATASE,[3],435.67 u/L
same,ASPARTATE AMINOTRANSFERASE,[3],81.67 u/L
same,BLOOD UREA NITROGEN,[3],12.33 mg/dL
same,CARBON DIOXIDE,[3],33 mmol/L
same,CHLORIDE,[3],98 MEQ/L
same,CHOLESTEROL,[3],77.33 mg/dL
same,CREATINE PHOSPHOKINASE,[3],224.33 u/L
same,CREATININE,[3],0.13 mg/dL
same,GLUCOSE,[3],132.33 mg/dL
same,LACTATE DEHYDROGENASE,[3],137.33 u/L
same,LIPASE,[3],9.67 u/L
same,PHOSPHORUS,[3],11.77 mg/dL
same,POTASSIUM,[3],6.44 MEQ/L
same,SODIUM,[3],143.43 MEQ/L
same,TOTAL BILIRUBIN,[3],0.2 mg/dL
same,TOTAL PROTEIN,[3],5.9 G/DL
same,URIC ACID,[3],0.77 mg/dL
